SMILES strings stand for the structures. Structures can show the parent of a compound that is named as a salt.

This test is described as follows: Test 4: Inhibition of cellular release of amyloid peptide 1-40. Format: cell-based, Chinese hamster. The settings on record: Cricetulus griseus; Test 4, CHO cells transfected with APP, 24 hours with test compound, amyloid peptide 1-40 in supernatant; read-out: Bace IC50. On the procedure:
Test 4: Inhibition of Cellular Release of Amyloid Peptide 1-40
Chinese hamster ovary cells are transfected with the gene for amyloid precursor protein. The cells are plated at a density of 8000 cells/well into 96-well microtiter plates and cultivated for 24 hours in DMEM cell culture medium containing 10% FCS. The test compound is added to the cells at various concentrations, and the cells are cultivated for 24 hours in the presence of the test compound. The supernatants are collected, and the concentration of amyloid peptide 1-40 is determined using state of the art immunoassay techniques, for example sandwich ELISA, homogenous time-resolved fluorescence (HTRF) immunoassay, or electro-chemiluminescence immunoassay.

Regarding `NC1=NC(c2cc(NC(=O)c3ccc(Br)cn3)ccc2F)(C(F)(F)F)CCOC1` (stereo not shown) [Example 99, 5-Bromo-pyridine-2-carboxylic acid [3-(3-amino-5-trifluoromethyl-2,5,6,7-tetrahydro-[1,4]oxazepin-5-yl)-4-fluoro-phenyl]-amide hydrochloride], the half-inhibitory concentration (IC50) (in general, the concentration needed to halve the response being measured) stood at 100 nM.

In the case of `Cc1cc(Br)cnc1C(=O)Nc1ccc(F)c(C2(C)COCC(N)=N2)c1` (stereo not shown) [Example 64], the IC50 amounted to 4 nM.

On to `C[C@@]1(c2cccc(NC(=O)c3ccc(Br)cn3)c2)COCC(N)=N1` [Example 3, 5-Bromo-pyridine-2-carboxylic acid [3-((R)-5-amino-3-methyl-3,6-dihydro-2H-[1,4]oxazin-3-yl)-phenyl]-amide hydrochloride], for which the IC50 was found to be 17 nM.

Regarding `CC#CCOc1cnc(C(=O)Nc2ccc(F)c([C@]3(C(F)F)COCC(N)=N3)c2)cn1` [Example 164], the concentration for half-maximal inhibition (IC50) turned out to be 1 nM.

For the molecule `Cc1cc(C#N)cnc1C(=O)Nc1ccc(F)c([C@]2(C(F)F)COCC(N)=N2)c1` [Example 144, 5-Cyano-3-methyl-pyridine-2-carboxylic acid [3-((R)-5-amino-3-difluoromethyl-3,6-dihydro-2H-[1,4]oxazin-3-yl)-4-fluoro-phenyl]-amide], the IC50 was 6 nM.

Turning to `Cl.[2H]c1nc(C(=O)Nc2ccc(F)c([C@]3(C(F)F)COCC(N)=N3)c2)c(C([2H])([2H])[2H])c([2H])c1Br` [Example 116, 5-Bromo-4,6-dideutero-3-trideuteromethyl-pyridine-2-carboxylic acid [3-((R)-5-amino-3-difluoromethyl-3,6-dihydro-2H-[1,4]oxazin-3-yl)-4-fluoro-phenyl]-amide hydrochloride], the IC50 is 4 nM.

As for `C[C@@]1(c2cc(NC(=O)c3ncc(Br)cn3)ccc2F)CO[C@@](C)(C(F)(F)F)C(N)=N1` [Example 71, 5-Bromo-pyrimidine-2-carboxylic acid [3-((3R,6R)-6-amino-3,6-dimethyl-6-trifluoromethyl-3,6-dihydro-2H-[1,4]oxazin-3-yl)-4-fluoro-phenyl]-amide hydrochloride], the IC50 amounted to 4 nM.

In the case of `N#Cc1ccc(C(=O)Nc2ccc(F)c([C@]3(C(F)F)COCC(N)=N3)c2)nc1` [Example 112, 5-Cyano-pyridine-2-carboxylic acid [3-((R)-5-amino-3-difluoromethyl-3,6-dihydro-2H-[1,4]oxazin-3-yl)-4-fluoro-phenyl]-amide hydrochloride], the IC50 came out at 7 nM.

In the case of `[2H]c1nc(C(=O)Nc2ccc(F)c([C@]3(C(F)F)COCC(N)=N3)c2)c(C([2H])([2H])[2H])c([2H])c1C#N` [Example 147, 5-Cyano-4,6-dideutero-3-trideuteromethyl-pyridine-2-carboxylic acid [3-((R)-5-amino-3-difluoromethyl-3,6-dihydro-2H-[1,4]oxazin-3-yl)-4-fluoro-phenyl]-amide], the IC50 came to 8 nM.

Take `COc1cnc(C(=O)Nc2ccc(F)c([C@]3(C(F)F)COCC(N)=N3)c2)c(N)n1` [Example 175]: the IC50 stood at 4 nM.

Values taken from US8846658B2, “Oxazine derivatives and their use in the treatment of neurological disorders” (Novartis AG, priority 2009, dated 2014).
